Source: ChEMBL document CHEMBL1201862, “PubChem BioAssay data set” (2004)
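Results reflect a 48-hour exposure of cells in 96-well plates to compound at five concentrations. GI50 is the concentration that inhibits growth by half.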 Active and inactive are the calls of the source. Rule as the data show it: active = GI50 up to about 1.1 µM and inactive = higher.

Columns and labels:
Test in all cases: inhibition of tumour cell growth, NCI panel, 48 h
[1] = tested on: 786-0
[2] = tested on: A498
[3] = tested on: A549
[4] = tested on: BT-549
[5] = tested on: CAKI-1
[6] = tested on: CCRF-CEM
[7] = tested on: COLO 205
[8] = tested on: DU-145
[9] = tested on: EKVX
[10] = tested on: HCT-116
[11] = tested on: HCT-15
[12] = tested on: HOP-62
[13] = tested on: HT-29
[14] = tested on: Hs-578T
[15] = tested on: IGROV-1
[16] = tested on: K562
[17] = tested on: KM12
[18] = tested on: LOX IMVI
[19] = tested on: M14
[20] = tested on: MCF7
[21] = tested on: MDA-MB-231
[22] = tested on: MDA-MB-435
[23] = tested on: MDA-N
[24] = tested on: MOLT-4
[25] = tested on: Malme-3M
[26] = tested on: NCI-H226
[27] = tested on: NCI-H23
[28] = tested on: NCI-H522
[29] = tested on: NCI/ADR-RES
[30] = tested on: OVCAR-3
[31] = tested on: OVCAR-4
[32] = tested on: OVCAR-5
[33] = tested on: OVCAR-8
[34] = tested on: PC-3
[35] = tested on: RPMI-8226
[36] = tested on: RXF 393
[37] = tested on: SF-268
[38] = tested on: SF-295
[39] = tested on: SK-MEL-28
[40] = tested on: SK-MEL-2
[41] = tested on: SK-MEL-5
[42] = tested on: SK-OV-3
[43] = tested on: SN12C
[44] = tested on: SNB-19
[45] = tested on: SNB-75
[46] = tested on: SW-620
[47] = tested on: T47D
[48] = tested on: TK-10
[49] = tested on: U-251
[50] = tested on: UACC-257
[51] = tested on: UACC-62
[52] = tested on: UO-31
[53] = tested on: ACHN
[54] = tested on: HCC 2998
[55] = tested on: HL-60
[56] = tested on: HOP-92
[57] = tested on: NCI-H460
[58] = tested on: SF-539
[59] = tested on: SR

## Cc1ccc2c(=O)cc(Cc3csc4ccccc34)[nH]c2n1
[1]
  GI50: 46.2 µM (inactive)
[2]
  GI50: 32.3 µM (inactive)
[3]
  GI50: 27.4 µM (inactive)
[4]
  GI50: 23.3 µM (inactive)
[5]
  GI50: 44.3 µM (inactive)
[6]
  GI50: 41.4 µM (inactive)
[7]
  GI50: 26.7 µM (inactive)
[8]
  GI50: 50.9 µM (inactive)
[9]
  GI50: 29.2 µM (inactive)
[10]
  GI50: 28.8 µM (inactive)
[11]
  GI50: 12.1 µM
[12]
  GI50: 59.2 µM (inactive)
[13]
  GI50: 35.1 µM (inactive)
[14]
  GI50: 12.7 µM (inactive)
[15]
  GI50: 11.7 µM (inactive)
[16]
  GI50: 43.5 µM (inactive)
[17]
  GI50: 21.3 µM (inactive)
[18]
  GI50: 17.5 µM (inactive)
[19]
  GI50: 32 µM (inactive)
[20]
  GI50: 35.2 µM (inactive)
[21]
  GI50: 52.5 µM (inactive)
[22]
  GI50: 32.6 µM (inactive)
[23]
  GI50: 64.7 µM (inactive)
[24]
  GI50: 38.3 µM (inactive)
[25]
  GI50: 12.4 µM (inactive)
[26]
  GI50: 18.1 µM (inactive)
[27]
  GI50: 19.3 µM (inactive)
[28]
  GI50: 13.6 µM (inactive)
[29]
  GI50: 19.8 µM (inactive)
[30]
  GI50: 28.8 µM (inactive)
[31]
  GI50: 21.1 µM (inactive)
[32]
  GI50: 60 µM (inactive)
[33]
  GI50: 36 µM (inactive)
[34]
  GI50: 67 µM (inactive)
[35]
  GI50: 22.3 µM (inactive)
[36]
  GI50: 25.3 µM (inactive)
[37]
  GI50: 21.3 µM (inactive)
[38]
  GI50: 26 µM (inactive)
[39]
  GI50: 50.5 µM (inactive)
[40]
  GI50: 79.3 µM (inactive)
[41]
  GI50: 16.4 µM (inactive)
[42]
  GI50: 67 µM (inactive)
[43]
  GI50: 42.9 µM (inactive)
[44]
  GI50: 39.7 µM (inactive)
[45]
  GI50: 16.6 µM (inactive)
[46]
  GI50: 40.7 µM (inactive)
[47]
  GI50: 19 µM (inactive)
[48]
  GI50: 53.5 µM (inactive)
[49]
  GI50: 69.8 µM (inactive)
[50]
  GI50: 38.6 µM (inactive)
[51]
  GI50: 27 µM (inactive)
[52]
  GI50: 22.4 µM (inactive)

## COC1=CC(=O)C2=C(C[C@@]3(C)C(=C2)C(CO)=CC[C@H]3O)C1=O
[1]
  GI50: 20.7 µM (inactive)
[2]
  GI50: > 100 µM (inactive)
[3]
  GI50: 33.7 µM (inactive)
[53]
  GI50: 18.2 µM (inactive)
[4]
  GI50: 19.2 µM (inactive)
[5]
  GI50: 73.3 µM (inactive)
[6]
  GI50: 4.04 µM (inactive)
[7]
  GI50: 27.5 µM (inactive)
[8]
  GI50: 38.9 µM (inactive)
[9]
  GI50: 21.8 µM (inactive)
[54]
  GI50: 36.5 µM (inactive)
[10]
  GI50: 18.7 µM (inactive)
[11]
  GI50: 27.5 µM
[55]
  GI50: 1.79 µM (inactive)
[12]
  GI50: 25.2 µM (inactive)
[56]
  GI50: 11 µM (inactive)
[13]
  GI50: 46.1 µM (inactive)
[14]
  GI50: 30.9 µM (inactive)
[15]
  GI50: 14.6 µM (inactive)
[16]
  GI50: 2.57 µM (inactive)
[17]
  GI50: 31.4 µM (inactive)
[18]
  GI50: 17.1 µM (inactive)
[19]
  GI50: 21.8 µM (inactive)
[20]
  GI50: 16 µM (inactive)
[21]
  GI50: 3.86 µM (inactive)
[22]
  GI50: 20.7 µM (inactive)
[23]
  GI50: 19 µM (inactive)
[24]
  GI50: 0.0975 µM (active)
[25]
  GI50: 34.2 µM (inactive)
[26]
  GI50: 14 µM (inactive)
[27]
  GI50: 20.4 µM (inactive)
[57]
  GI50: 25.9 µM (inactive)
[29]
  GI50: 23.5 µM (inactive)
[30]
  GI50: 24.9 µM (inactive)
[31]
  GI50: 17.9 µM (inactive)
[32]
  GI50: 27 µM (inactive)
[33]
  GI50: 18.2 µM (inactive)
[34]
  GI50: 28.2 µM (inactive)
[35]
  GI50: 18.4 µM (inactive)
[36]
  GI50: 16.4 µM (inactive)
[37]
  GI50: 18.7 µM (inactive)
[38]
  GI50: 22 µM (inactive)
[58]
  GI50: 18.8 µM (inactive)
[39]
  GI50: 29.6 µM (inactive)
[41]
  GI50: 17.4 µM (inactive)
[42]
  GI50: 88.5 µM (inactive)
[43]
  GI50: 17.8 µM (inactive)
[44]
  GI50: 68.1 µM (inactive)
[46]
  GI50: 25.3 µM (inactive)
[47]
  GI50: 24.6 µM (inactive)
[48]
  GI50: 98.2 µM (inactive)
[49]
  GI50: 21 µM (inactive)
[50]
  GI50: 18.6 µM (inactive)
[51]
  GI50: 17.6 µM (inactive)
[52]
  GI50: 20 µM (inactive)

## COc1ccc(N[S+]([O-])c2ccc(Cl)cc2)cc1 (stereo not drawn)
[1]
  GI50: 49.8 µM (inactive)
[3]
  GI50: 23.5 µM (inactive)
[53]
  GI50: 91 µM (inactive)
[4]
  GI50: 0.248 µM (active)
[6]
  GI50: 50.5 µM (inactive)
[7]
  GI50: > 100 µM (inactive)
[8]
  GI50: 43.5 µM (inactive)
[9]
  GI50: 55.2 µM (inactive)
[54]
  GI50: 30.7 µM (inactive)
[10]
  GI50: 14.5 µM (inactive)
[11]
  GI50: 19.5 µM
[55]
  GI50: 38.5 µM (inactive)
[12]
  GI50: 61.7 µM (inactive)
[13]
  GI50: 37.7 µM (inactive)
[14]
  GI50: 23.1 µM (inactive)
[15]
  GI50: 10.5 µM (inactive)
[16]
  GI50: 34.4 µM (inactive)
[17]
  GI50: 7.31 µM (inactive)
[18]
  GI50: 31 µM (inactive)
[19]
  GI50: 94 µM (inactive)
[20]
  GI50: 32.6 µM (inactive)
[21]
  GI50: 50.4 µM (inactive)
[22]
  GI50: 14.8 µM (inactive)
[23]
  GI50: 28.3 µM (inactive)
[24]
  GI50: 20.6 µM (inactive)
[25]
  GI50: 24.3 µM (inactive)
[26]
  GI50: 19.5 µM (inactive)
[27]
  GI50: 50.5 µM (inactive)
[57]
  GI50: 24.3 µM (inactive)
[28]
  GI50: 16.2 µM (inactive)
[29]
  GI50: 38.8 µM (inactive)
[30]
  GI50: 90.4 µM (inactive)
[31]
  GI50: > 100 µM (inactive)
[33]
  GI50: 73.3 µM (inactive)
[35]
  GI50: 39.4 µM (inactive)
[37]
  GI50: 4 µM (inactive)
[38]
  GI50: 45.8 µM (inactive)
[58]
  GI50: 11.9 µM (inactive)
[39]
  GI50: > 100 µM (inactive)
[40]
  GI50: 24.5 µM (inactive)
[41]
  GI50: 28.4 µM (inactive)
[43]
  GI50: > 100 µM (inactive)
[44]
  GI50: 93.1 µM (inactive)
[59]
  GI50: 13.4 µM (inactive)
[46]
  GI50: 49.1 µM (inactive)
[47]
  GI50: 10.1 µM (inactive)
[48]
  GI50: > 100 µM (inactive)
[49]
  GI50: 11.8 µM (inactive)
[50]
  GI50: 17.9 µM (inactive)
[51]
  GI50: 8.43 µM (inactive)
[52]
  GI50: 14.6 µM (inactive)
